The text below walks through data of the METLIN SMRT retention time set (Domingo-Almenara et al. 2019).

The data set in a line: gradient 5% acetonitrile 3 min, to 50% in 2 min, to 85% in 15 min, held 3 min, 100 µL/min. Conditions: column: Zorbax Extend-C18 2.1 x 50 mm; eluents: water / acetonitrile, 0.1% formic acid. In a few lines:
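Over 3 months, pure standards in mixtures of ~100 molecules were run by HPLC coupled to a quadrupole time-of-flight mass spectrometer in positive and negative ionization mode. The column was a Zorbax Extend-C18 (2.1 × 50 mm, 1.8 μm) at 100 μL/min, eluted with water and acetonitrile each holding 0.1% formic acid, with 40 μL dead and 900 μL dwell volumes. Retention time was determined from adduct peaks chosen by software and checked manually.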
On to `CCCC(=O)Nc1ccc2c(c1)CN(C(=O)c1c(F)cccc1Cl)C(C(=O)N(C)C)C2` (centres undefined), for which the RP-LC retention time was 727 s. Under `CN(C)c1ccc(CNC(=O)CN2c3ccccc3NC3=C(C(=O)CCC3)C2c2ccco2)cc1` (centres undefined) stands 628 s; under `Cc1ccc(N2CCC(NC(=O)Nc3ccccc3)C2=O)cc1C` (centres undefined), 870 s. Consider `CC1(C(=O)NCc2ccc3c(c2)OCO3)CCCCC(=O)N1` (centres undefined), for which the RP-LC retention time came to 642 s.

Regarding `CCCCN1CCN(c2ccc(-c3csc(S(=O)(=O)N4CCCCC4)c3)nn2)CC1`, the RP-LC retention time turned out to be 686 s. `CCCCCn1c(=O)c2ccccc2n(Cc2nc(-c3ccc(F)c(Cl)c3)no2)c1=O` displayed an RP-LC retention time of 1290 s. For `CCc1nn2c(CNS(=O)(=O)c3cc(C)ccc3C)c(-c3ccccc3)nc2s1` the value was 986 s; for `O=C1CCC(c2nc(-c3ccc4c(c3)OCO4)no2)=NN1Cc1ccccc1`, 1050 s; for `COc1ccc(NC(=O)Cn2c(C)cc(-c3nnc(C)o3)c2C)cc1`, 732 s. For `COCc1cn(C2CN(C(=O)COc3ccccc3)C2)nn1`, the RP-LC retention time was found to be 642 s. In turn, `Clc1cc(Cl)cc(-c2ccc(CNCc3ccccn3)o2)c1` came in with an RP-LC retention time of 742 s. The compound `Cc1ccc(CNC(=O)N2CCN(c3ncccc3-c3nnc(C(C)C)o3)CC2)cc1` yielded an RP-LC retention time of 815 s.

Turning to `O=C(Nc1nc2ccccc2[nH]1)C1CCN(c2ccc(-c3cccs3)nn2)CC1`, the RP-LC retention time was determined as 591 s.

For `COc1cc2c(cc1OC)C1C(C(=O)N3CCN(c4ccccn4)CC3)c3ccccc3C(=O)N1CC2` (centres undefined), the RP-LC retention time turned out to be 606 s. Compound `COc1cccc(CNC(=O)c2cn3cc(Cl)ccc3n2)c1OC` gave an RP-LC retention time of 824 s. Consider `COc1cccc(C(O)CN2CCN(c3ccc(C)cc3)CC2)c1` (centres undefined), for which the RP-LC retention time came out at 677 s. Under `CN(C(=O)Cn1cccc1-c1nc(-c2ccccc2)no1)c1ccccc1` stands 1100 s; under `Clc1c(Cl)c(Cl)c2n[nH]nc2c1Cl`, 962 s; under `CCCn1ncc(N2CCC(C(=O)NC(C)c3cccs3)CC2)cc1=O` (centres undefined), 716 s.

As to `Cc1cc(C)n(CCC(=O)NCC23CCCC=C2NC(=O)CC3)n1` (centres undefined), the RP-LC retention time amounted to 621 s.

In turn, `CCCOc1ccc(CN2C[C@@H](CO)[C@H](c3ccccn3)C2)cc1` returned an RP-LC retention time of 578 s.

For `COc1ccc(OC)c(S(=O)(=O)N2CC(c3nc(-c4ccsc4)nn3C)C2)c1`, the RP-LC retention time was 816 s. Consider `COc1ccc(NC(=O)C2(C)Oc3cccnc3N(C(C)C)C2=O)cc1` (centres undefined), for which the RP-LC retention time came to 918 s.

Compound `Cc1ccc(-c2nc(CCN(C)C(=O)Nc3cc(F)ccc3F)no2)cc1` showed an RP-LC retention time of 994 s. Compound `O=C(NCc1ccc(-c2noc(/C=C/c3ccccc3)n2)s1)C1CC1` displayed an RP-LC retention time of 915 s. In turn, `Cc1ccc(Cn2ccn3nc(-c4ccccc4)c(CO)c3c2=O)cc1` yielded an RP-LC retention time of 964 s. Under `Cc1cc(S(=O)(=O)Nc2ccc(Cn3cncn3)cc2)ccc1F` stands 743 s; under `O=C(Nc1ccc2c(c1)CN(C(=O)c1cc(C3CC3)[nH]n1)CCO2)C1CC1`, 696 s. In turn, `CCc1noc(-c2nc(-c3ccc(OC)cc3OC)no2)n1` returned an RP-LC retention time of 976 s. `CCCN1C(=O)COc2cc(-c3noc(C(=O)NC4CCCCCC4)n3)ccc21`: the RP-LC retention time is 1150 s. For `O=C(Cn1c(=O)c2cccn2c2ccc(F)cc21)NCC1CCCO1` (centres undefined) the value was 703 s.

For the compound `CS(=O)(=O)Nc1ccc(C2(C(=O)NC3CCCC3)CCCCC2)cc1`, the RP-LC retention time stood at 634 s. In the case of `CN(C)c1nccnc1OC1CCN(C(=O)c2ccncc2)C1` (centres undefined), the RP-LC retention time is 553 s. Under `Cc1ccc(C(=O)N2C[C@@H]3C[C@H]2C[C@@H]3NS(=O)(=O)c2cccnc2)cc1F` stands 716 s. As for `Cc1nn(C)cc1CN1CC(F)(F)C[C@H]1c1nnc(-c2ccccc2)o1`, the RP-LC retention time is 784 s. `Cn1c(=O)c2cc(C(=O)NCc3cc(F)ccc3F)nn2c2ccccc21` yielded an RP-LC retention time of 869 s.

Consider `CN(CC1(C)CCOCC1)C(=O)NCc1cccc(F)c1`, for which the RP-LC retention time was 731 s. With `O=C(NCC1CN(CC2CC2)CC12CCCCC2)Nc1cccc(Cl)c1` (centres undefined), the RP-LC retention time is 741 s. `Cc1cccc(CNC(=O)CN2CCN(Cc3ccc(F)cc3)C2=O)c1`: the RP-LC retention time is 831 s.

The compound `CC(Cc1ccco1)NC(=O)c1ccc2c(c1)nc1n2CCCCC1` (centres undefined) displayed an RP-LC retention time of 620 s. For the compound `CC(C)NC(=O)c1ccc(OCC2CCCN2C(=O)C(C)C)cc1` (centres undefined), the RP-LC retention time is 757 s. Under `COc1ccc(NC(=O)c2ccc(-c3ccc(-c4noc(C)n4)cc3C)cc2)cc1OCCN(C)C` stands 788 s. For `CCCCOc1ccc(-c2nc(C3CC(=O)N(c4ccc(F)cc4)C3)no2)cc1` (centres undefined) the value was 1240 s; for `O=C(Cc1csc(-n2cccc2)n1)N1CCN(c2ccccn2)CC1`, 623 s. Take `Cc1nnc(N2CCCC(C(=O)NCCc3ccccc3)C2)c2nn(-c3ccc(Cl)cc3)c(C)c12` (centres undefined): the RP-LC retention time was found to be 789 s. Consider `COc1ccc(-c2noc(CSc3nccn3-c3ccc(C)cc3)n2)cc1`, for which the RP-LC retention time stood at 926 s. In turn, `CCOc1ccccc1-c1noc(Cn2ncn3nc(-c4ccc(F)cc4)cc3c2=O)n1` returned an RP-LC retention time of 1080 s. For `O=C(Cc1ccc2ccccc2c1)Nc1nnc(-c2ccno2)o1` the value was 558 s. As for `CCOC(=O)C1CCN(c2ncnc3c2cnn3-c2ccc(OC)cc2)CC1`, the RP-LC retention time worked out at 952 s. In turn, `O=C(Cn1cccc1-c1nnc(-c2ccccc2)o1)Nc1ccc2c(c1)OCCO2` gave an RP-LC retention time of 897 s. Turning to `CCOC(=O)C(=O)Nc1ccc(-c2nc(-c3ccc(C)cc3C)co2)cc1`, the RP-LC retention time amounted to 1170 s. Under `CCOc1ccc(-c2cc3c(=O)n(CC(O)c4ccc(C(C)C)cc4)ccn3n2)cc1` (centres undefined) stands 1120 s; under `COc1ccc(Cn2c(=O)c3sccc3n(Cc3nc(-c4ccc(Cl)c(F)c4)no3)c2=O)cc1`, 1190 s; under `CCc1cccc(NC(=O)Cn2nc3cc(C)nc(N4CCCC4)n3c2=O)c1`, 798 s. In the case of `CN1C(=O)[C@H]2CN(Cc3cn[nH]c3-c3ccc(F)cc3)C[C@H]2C1=O`, the RP-LC retention time was 575 s. Compound `Cc1cnn(CCC(=O)NC2CCN(c3ccc(=O)n(CC4CC4)n3)C2)c1` (centres undefined) yielded an RP-LC retention time of 654 s.

As to `COc1ccc2c(c1)C(O)(CC(=O)c1ccc(-c3ccc(Cl)cc3)o1)C(=O)N2` (centres undefined), the RP-LC retention time stood at 797 s. The compound `COc1ccc(CN(C(=O)COc2c(C)cccc2C)C2CCS(=O)(=O)C2)cc1OC` (centres undefined) returned an RP-LC retention time of 847 s. The compound `COc1ccc(-c2cc3n(n2)CCCN(S(=O)(=O)c2ccc4c(c2)CCC4)C3)cc1` displayed an RP-LC retention time of 1080 s.

In turn, `CCCn1cc(CCNC(=O)Nc2c(F)cccc2F)c2cccnc21` gave an RP-LC retention time of 699 s. Consider `O=C(O)c1nnn(-c2cccc(Cl)c2)c1-c1cccnc1`, for which the RP-LC retention time turned out to be 680 s.

As for `Cc1ccc(CNC(=O)N2CCN(CCn3c(C(F)(F)F)nc4cccnc43)CC2)cc1`, the RP-LC retention time stood at 661 s. Consider `Cc1ccc(S(=O)(=O)N2CC(c3nnc(-c4ccncc4)o3)C3(CCOCC3)C2)cc1` (centres undefined), for which the RP-LC retention time was 697 s.

`COc1ccc(-n2nc(SCC(=O)Nc3ccc(Cl)cc3)ccc2=O)cc1` returned an RP-LC retention time of 629 s. For `COc1ccc(CNC(=O)Cn2c(C)nc3onc(C)c3c2=O)cc1` the value was 711 s; for `O=C(Nc1cccc(-c2nnc3n2CCCC3)c1)c1ccn[nH]1`, 595 s; for `O=C(CCn1nnc2cc(S(=O)(=O)N3CCCCC3)ccc21)N1CCN(c2ccccn2)CC1`, 665 s. With `COc1cc([N+](=O)[O-])ccc1NC(=O)CCS(=O)(=O)c1ccc(Cl)cc1`, the RP-LC retention time came to 854 s. Compound `CCn1cnc2cc(-c3noc(C4CC(=O)N(c5cccc(Cl)c5)C4)n3)ccc21` (centres undefined) yielded an RP-LC retention time of 731 s. Under `CCc1nn2c(CNS(=O)(=O)Cc3ccccc3F)c(-c3ccccc3)nc2s1` stands 948 s; under `CC(Oc1ccccc1Cl)C(=O)NCCn1nc(-n2cccn2)ccc1=O` (centres undefined), 710 s. In the case of `CCc1noc(CN2N=C(C(=O)N3CCC(C)CC3)S(=O)(=O)c3ccccc32)n1`, the RP-LC retention time stood at 886 s. The compound `COc1cc([C@@H]2c3cc4c(cc3[C@H](O)[C@@H](CO)[C@@H]2C(=O)NCCC2=CCCCC2)OCO4)cc(OC)c1OC` yielded an RP-LC retention time of 781 s. `c1ccc(-c2nc3ccccn3c2Nc2ccc3c(c2)OCO3)cc1` returned an RP-LC retention time of 677 s.

In turn, `Cc1ccc2c(c1)N(S(C)(=O)=O)CCC(C(=O)Nc1cccc(Cl)c1)O2` (centres undefined) came in with an RP-LC retention time of 1020 s. Under `Cc1sc(-c2noc(C(C)C)n2)cc1S(=O)(=O)N1CCC(C(=O)NC2CCCCC2)CC1` stands 1090 s. Regarding `COc1ccc(-c2nc3cc(C)ccn3c2NC(=O)c2ccc(Cl)cc2Cl)cc1`, the RP-LC retention time stood at 753 s.

As for `Cc1ccc2cc(CCC(=O)NCCc3ccncc3)c(=O)[nH]c2c1`, the RP-LC retention time amounted to 589 s. `CCSc1nc2ccc(NS(=O)(=O)c3ccc(F)cc3F)cc2s1` yielded an RP-LC retention time of 1020 s.
